# Literature values in patent US8591947B2, “Dual controlled release dosage form” (Osmotica Kereskedelmi és Szolgáltató KFT, priority 2001, dated 2013).
row,Compound,Solubility of component in water (U.S.P. term)
1,CCOC(=O)C1=C(C)NC(C)=C(C(=O)OC)C1c1cccc(Cl)c1Cl (centres unmarked) [felodipine],practically insoluble
2,CN/C(=N/CCSCc1nc[nH]c1C)NC#N [cimetidine],sparingly soluble
3,Cc1nc2n(c(=O)c1CCN1CCC(c3noc4cc(F)ccc34)CC1)CCCC2 [risperidone],practically insoluble
4,Cc1ncc([N+](=O)[O-])n1CCO [metronidazole],sparingly soluble
5,OCCOCCN1CCN(C(c2ccccc2)c2ccc(Cl)cc2)CC1 (centres unmarked) [hydroxyzine],very soluble
